Read-outs that look alike come from different tables or passages of the source.
Columns and labels:
Assay in all cases: 72-hour CellTiter-Glo 2.0 growth inhibition screen (single agent, 9x9 combination dose matrix);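 for Best CI Level: inhibition effect level at which the best CI was calculated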
Type in all cases: cell-based
AsPC-1 = conditions: for EC50: ASPC1, 72 h
LS-513 = conditions: for EC50: LS-513, 72 h
SW48 KRAS (G12C/+) = conditions: for EC50: SW48, 72 h, read-out: EC50
SW48 KRAS (G12D/+) = conditions: for EC50: SW48, 72 h, read-out: EC50
SW837 = conditions: for EC50: SW837, 72 h
[1] = AsPC-1 (KRAS G12D), enhancer + MEI-522 (Voruciclib), 72 h;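 for Best CI Level: inhibition effect level at which the best CI was calculated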
[2] = enhancer combined with MEI-522 (Voruciclib), AsPC-1 (Pancreas), 72 hours, inhibition data
[3] = Homo sapiens, LS-513, Colorectal, Additional Single Agent Responses (inhibition, % I), 72 h
[4] = Homo sapiens, LS-513, Colorectal, growth inhibition (GI) curve, single agent, 72 h
[5] = LS-513 (KRAS G12D), enhancer + MEI-522 (Voruciclib), 72 h;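 for Best CI Level: inhibition effect level at which the best CI was calculated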
[6] = enhancer combined with MEI-522 (Voruciclib), LS-513 (Colorectal), 72 hours, inhibition data
[7] = Homo sapiens, SW48 KRAS (G12C/+), Colorectal, Additional Single Agent Responses (inhibition, % I), 72 h
[8] = Homo sapiens, SW48 KRAS (G12C/+), Colorectal, growth inhibition (GI) curve, single agent, 72 h
[9] = SW48 KRAS (G12C/+), enhancer + MEI-522 (Voruciclib), 72 h
[10] = enhancer combined with MEI-522 (Voruciclib), SW48 KRAS (G12C/+) (Colorectal), 72 hours, inhibition data
[11] = Homo sapiens, SW48 KRAS (G12D/+), Colorectal, Additional Single Agent Responses (inhibition, % I), 72 h
[12] = Homo sapiens, SW48 KRAS (G12D/+), Colorectal, growth inhibition (GI) curve, single agent, 72 h
[13] = SW48 KRAS (G12D/+), enhancer + MEI-522 (Voruciclib), 72 h
[14] = enhancer combined with MEI-522 (Voruciclib), SW48 KRAS (G12D/+) (Colorectal), 72 hours, inhibition data
[15] = Homo sapiens, SW837, Colorectal, Additional Single Agent Responses (inhibition, % I), 72 h
[16] = Homo sapiens, SW837, Colorectal, growth inhibition (GI) curve, single agent, 72 h
[17] = SW837 (KRAS G12C), enhancer + MEI-522 (Voruciclib), 72 h;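 for Best CI Level: inhibition effect level at which the best CI was calculated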
[18] = enhancer combined with MEI-522 (Voruciclib), SW837 (Colorectal), 72 hours, inhibition data

## CN1CCN(c2ccc(OC(F)(F)F)c(Nc3ncc4c(n3)-c3c(c(C(N)=O)nn3CCO)CC4)c2)CC1 [Onvansertib]
AsPC-1; [1]
  Best CI: 0.84
  Bliss Volume: −1.25
  HSA volume: −1.39
  Loewe Volume: −0.75
  Synergy Score: 1.41
AsPC-1; AsPC-1, Pancreas, Additional Single Agent Responses (inhibition, % I), 72 h
  Response Area: 2.50
AsPC-1; AsPC-1, Pancreas, growth inhibition (GI), AUC, single agent, 72 h
  Response Area: 3.48
AsPC-1; Homo sapiens, AsPC-1, Pancreas, Additional Single Agent Responses (inhibition, % I), 72 h
  EC50: 94.9 nM
AsPC-1; Homo sapiens, AsPC-1, Pancreas, growth inhibition (GI) curve, single agent, 72 h
  EC50: 82.3 nM
AsPC-1; Homo sapiens, ASPC1, AsPC-1, Pancreas, Additional Single Agent Responses (inhibition, % I), 72 h
  IC50: 332 nM
AsPC-1; Homo sapiens, ASPC1, AsPC-1, Pancreas, Additional Single Agent Responses, 72 h, read-out: Max Response (% I)
  Emax: 60%
AsPC-1; Homo sapiens, ASPC1, AsPC-1, Pancreas, growth inhibition (GI) curve, single agent, 72 h
  GI50: 109 nM
AsPC-1; Homo sapiens, ASPC1, AsPC-1, Pancreas, growth inhibition (GI), single agent, 72 h, read-out: Max Response (% GI)
  Emax: 84%
AsPC-1; [2]
  Best CI: 1.13
  Best CI Level: 20
  Bliss Volume: −1.91
  HSA volume: −0.98
  Loewe Volume: −0.67
  Synergy Score: 0.67
LS-513; [3]
  EC50: 49.4 nM
  IC50: 61.6 nM
LS-513; [4]
  EC50: 49.4 nM
  GI50: 51.7 nM
LS-513; Homo sapiens, LS-513, Colorectal, Additional Single Agent Responses, 72 h, read-out: Max Response (% I)
  Emax: 79%
LS-513; Homo sapiens, LS-513, Colorectal, growth inhibition (GI), single agent, 72 h, read-out: Max Response (% GI)
  Emax: 97%
LS-513; [5]
  Best CI: 0.96
  Bliss Volume: 0.53
  HSA volume: −0.64
  Loewe Volume: −1.49
  Synergy Score: 2.51
LS-513; LS-513, Colorectal, Additional Single Agent Responses (inhibition, % I), 72 h
  Response Area: 3.29
LS-513; LS-513, Colorectal, growth inhibition (GI), AUC, single agent, 72 h
  Response Area: 4.03
LS-513; [6]
  Best CI: 0.90
  Best CI Level: 20
  Bliss Volume: −2.22
  HSA volume: −0.87
  Loewe Volume: −1.32
  Synergy Score: 0.70
SW48 KRAS (G12C/+); [7]
  EC50: 15.5 nM
  IC50: 16.3 nM
SW48 KRAS (G12C/+); [8]
  EC50: 17.1 nM
  GI50: 15.9 nM
SW48 KRAS (G12C/+); Homo sapiens, SW48 KRAS (G12C/+), Colorectal, Additional Single Agent Responses, 72 h, read-out: Max Response (% I)
  Emax: 93%
SW48 KRAS (G12C/+); Homo sapiens, SW48 KRAS (G12C/+), Colorectal, growth inhibition (GI), single agent, 72 h, read-out: Max Response (% GI)
  Emax: 159%
SW48 KRAS (G12C/+); SW48 KRAS (G12C/+), Colorectal, Additional Single Agent Responses (inhibition, % I), 72 h
  Response Area: 4.14
SW48 KRAS (G12C/+); SW48 KRAS (G12C/+), Colorectal, growth inhibition (GI), AUC, single agent, 72 h
  Response Area: 5.77
SW48 KRAS (G12C/+); [9]
  Best CI: 0.86
  Bliss Volume: 2.74
  HSA volume: −2.16
  Loewe Volume: −0.91
  Synergy Score: 5.28
SW48 KRAS (G12C/+); [10]
  Best CI: 0.67
  Best CI Level: 20
  Bliss Volume: −0.08
  HSA volume: 0.19
  Loewe Volume: −0.06
  Synergy Score: 1.03
SW48 KRAS (G12D/+); [11]
  EC50: 14 nM
  IC50: 17.8 nM
SW48 KRAS (G12D/+); [12]
  EC50: 15.7 nM
  GI50: 13.9 nM
SW48 KRAS (G12D/+); Homo sapiens, SW48 KRAS (G12D/+), Colorectal, Additional Single Agent Responses, 72 h, read-out: Max Response (% I)
  Emax: 92%
SW48 KRAS (G12D/+); Homo sapiens, SW48 KRAS (G12D/+), Colorectal, growth inhibition (GI), single agent, 72 h, read-out: Max Response (% GI)
  Emax: 168%
SW48 KRAS (G12D/+); SW48 KRAS (G12D/+), Colorectal, Additional Single Agent Responses (inhibition, % I), 72 h
  Response Area: 3.73
SW48 KRAS (G12D/+); SW48 KRAS (G12D/+), Colorectal, growth inhibition (GI), AUC, single agent, 72 h
  Response Area: 5.57
SW48 KRAS (G12D/+); [13]
  Best CI: 0.39
  Bliss Volume: 5.34
  HSA volume: −1.32
  Loewe Volume: 1.06
  Synergy Score: 8.15
SW48 KRAS (G12D/+); [14]
  Best CI: 0.51
  Bliss Volume: −0.39
  HSA volume: −0.28
  Loewe Volume: 0.65
  Synergy Score: 2.12
SW48 KRAS (G12D/+); enhancer combined with MEI-522 (Voruciclib), SW48 KRAS (G12D/+) (Colorectal), 72 hours, inhibition data, unit assumed
  Best CI Level: 20%
SW837; [15]
  EC50: 35.4 nM
  IC50: 53.4 nM
SW837; [16]
  EC50: 42.1 nM
  GI50: 34.1 nM
SW837; Homo sapiens, SW837, Colorectal, Additional Single Agent Responses, 72 h, read-out: Max Response (% I)
  Emax: 76%
SW837; Homo sapiens, SW837, Colorectal, growth inhibition (GI), single agent, 72 h, read-out: Max Response (% GI)
  Emax: 118%
SW837; [17]
  Best CI: 0.78
  Bliss Volume: 0.66
  HSA volume: −1.30
  Loewe Volume: −4.09
  Synergy Score: 0.88
SW837; SW837, Colorectal, Additional Single Agent Responses (inhibition, % I), 72 h
  Response Area: 3.32
SW837; SW837, Colorectal, growth inhibition (GI), AUC, single agent, 72 h
  Response Area: 5.06
SW837; [18]
  Best CI: 0.76
  Best CI Level: 20
  Bliss Volume: −1.39
  HSA volume: −0.59
  Loewe Volume: −2.03
  Synergy Score: 0.33
